Results: US11553713B2, “Polyalcohol, carbohydrate, nucleobase and nucleotide compositions and uses thereof” (Chunbo Zhang, priority 2015, dated 2023)
Where “and” joins values, the source holds several entries; their conditions need not be identical. Identical values can stand only once.

Tests used:
male mosquitoes = test: Efficacy by ingestion: feeder test, death rate of male mosquitoes; assay type: in vivo; settings: 0.1% rFOH, 10% sugar in CPDA, 24 hrs, 24 hrs fasting, sugar feeder provided for free choice
Protocol: (§1) (2R)-3-fluoropropane-1,2-diol (rFOH) was used as the active agent at various concentrations. A sugar feeder containing 10% sucrose, which is a regular mosquito feeder in a laboratory setting, was used as a regular food source in free choice studies. A free choice study allows the pests to select which feeder to feed on when given two or more choices.
Similar experiments as disclosed above were performed on female mosquitoes and male mosquitoes. The rFOH composition contained 10% sugar in CPDA solution unless specified otherwise.

Escherishia coli DH5α = test: MIC test, broth microdilution (CLSI M07-A9); assay type: cell-based; settings: Tryptic soy broth, 37° C. for 24 hrs
Protocol: (§2) The effects of pesticides disclosed herein on various bacteria were tested by determining the minimal inhibitory concentration (MIC) of the pesticides. MIC of an antimicrobial agent is the lowest concentration of the antimicrobial agent that inhibits a given bacterial isolate from multiplying and producing visible growth in the test system. The MIC of rFOH and BrOH was determined in the laboratory by incubating a known quantity of bacteria with a series of dilutions of the active agents and comparing their effects with those of known antimicrobial agents. Table 6 lists the representative bacterial strains and the conditions in MIC tests. Antimicrobial tests of the active agents were conducted according to “Methods for Dilution Antimicrobial Susceptibility Tests for Bacteria That Grow Aerobically” by Clinical and Laboratory Standards Institute (CLSI) (CLSI document M07-A9, 2012). In the study, methicillin/oxacillin resistant Staphylococcus aureus (MRSA) strain (ATCC 43300) was routinely under screening with 4 ug/ml oxacillin. Escherishia coli DH5α was a nonpathogenic laboratory strain. […] When the DH5α/plasmid (DH5P) colony was used, the colony was maintained in the presence of 100 ug/ml ampicillin.
(§3) MIC tests were conducted in 96 well microtiter plates with a total volume of 150 ul broth in each well. The directly colony suspension method (CLSI document M07-A9, 2012) was applied to obtain MIC for antimicrobial tests of the active agents. After colonies were freshly incubated overnight, colonies were suspended in sterile water to adjust the inoculum to a turbidity equivalent to a 0.5 McFarland standard (corresponding to approximately 1.5×10^8 CFU/ml). Within 10 minutes, the inoculum was adjusted by dilution in broth to reach a final concentration of 5×10^5 CFU/ml. A series of various concentrations of the active agents were applied to determine the MIC. In the same microtiter plate, an internal standard formulated by a concentration series of standard antibiotic agent was incubated in parallels to allow for back-to-back comparison.

[1] = tested on: Escherishia coli DH5α transformed with a pcDNA3 plasmid (DH5P); test: MIC test, broth microdilution (CLSI M07-A9); assay type: cell-based; settings: Tryptic soy broth, 37° C. for 24 hrs
Protocol: as §2, §3

[2] = tested on: Methicillin/oxacillin resistant Staphylococcus aureus (MRSA) strain (ATCC 43300); test: MIC test, broth microdilution (CLSI M07-A9); assay type: cell-based; settings: Mueller Hinton broth with 2% NaCl and 50 ug/ml CaCl2, 35° C. for 24 hrs
Protocol: as §2, §3

mosquitoes = test: Toxicity of rFOH by air exposure (container protected with a net to prevent ingestion); assay type: in vivo
Protocol: The CPDA contained 3.33 g sodium citrate, 0.376 g citric acid, 4.02 g glucose, 0.28 g sodium monobasic phosphate, and 0.346 g adenine in 1 liter of solution. (2R)-3-fluoropropane-1,2-diol (rFOH) was used as the active agent at a concentration of 1%.
100 mosquitoes were placed in a 6-liter cage with a container containing 1% rFOH in 10% sucrose with CPDA for 48 hours at room temperature (25-28° C.). The container was protected with a net to prevent ingestion of rFOH by the mosquitoes. […] The same result was obtained even when 10% of rFOH was used.

female mosquitoes = test: Efficacy by ingestion: feeder test in 6-liter cage, death rate of female mosquitoes; assay type: in vivo; settings: for death after 24 hours of feeding: fasted 24 hours
From the text: Female mosquitoes were used in the experiment because only female mosquitoes bite humans and animals and transmit infectious diseases.
as §1
In a two-choice test, a 6-liter cage was supplied with two feeders, one contained 5% rFOH and 10% sucrose in CPDA and the other one contained 10% sucrose without any rFOH or CPDA. 100 female mosquitoes were placed in the cage having the two feeders such that the mosquitoes chose freely which feeder to feed on. After 24 hours of feeding in the cage, over 80% of mosquitoes were dead. […] When the concentration of rFOH was reduced to 1% or 0.15%, its effectiveness remained the same. Over 80% of mosquitoes were dead due to 24 hours of feeding with rFOH.
Subsequent to 24 hours of feeding, rFOH feeder was removed from the cage and a regular sugar feeder (10% sucrose) was provided. In the next day, 5-20% of residual death was observed, indicating a delayed death after rFOH ingestion.
In a further study, mosquitoes were fasted for 24 hours before feeding to ensure that all mosquitoes have the capacity for food intake. […] Thus, fasting is not a cause of mosquito death during a series of experiments.
The experiments determined that 0.1% rFOH was sufficient to achieve 50% death (LD50) under various conditions. In one study, 100 mosquitoes were caged in a 6-liter space and fasted for 24 hours. Subsequently, the mosquitoes were fed on two feeders giving their free choices for 0.1% rFOH containing 10% sucrose in CPDA or 10% sucrose without rFOH for 24 hours, resulting in 43% death. In a parallel study in which the cage was supplied with a single feeder, the 0.1% rFOH feeder containing 10% sucrose in CPDA, which caused 44% of death after 24 hours of feeding.
Similar experiments as disclosed above were performed with various rFOH concentrations under various conditions. The rFOH composition contained 10% sugar in CPDA solution unless specified otherwise.
Similar experiments as disclosed above were performed on female mosquitoes to determine LD50. The rFOH composition contained 10% sugar in CPDA solution unless specified otherwise.
Similar experiments as disclosed above were performed on female mosquitoes using different active agents at various concentrations. The active agent composition contained 10% sugar in CPDA solution unless specified otherwise.

With `OC[C@@H](O)CF` [rFOH, (2R)-3-fluoropropane-1,2-diol] the “Death Rate” value (male mosquitoes) was 95%, the MIC (Escherishia coli DH5α) was 0.4% and 0.43% and the MIC [1] was 0.4%. The MIC [2] was 0.4%, the “death of mosquito by air exposure” value (mosquitoes; 1% rFOH in 10% sucrose with CPDA, container protected with net, 48 hours, room temperature (25-28° C.)) was “No death” and the “death of pests when exposed but not ingested” value (mosquitoes; concentration 100-fold as high as the LD50, not ingested) was “no death”. For the same compound, the “Death Rate” value (female mosquitoes; 0.1% rFOH, 5% sugar, CPDA, 5% maltose, 24 hrs, 24 hrs fasting, sugar feeder provided for free choice) was 54%, the “Death Rate” value (female mosquitoes; 0.1% rFOH, 5% sugar, CPDA, 25% Maple Syrup, 24 hrs, 24 hrs fasting, sugar feeder provided for free choice) was 26-47% and the “Death Rate” value (female mosquitoes; 0.1% rFOH, 5% sugar, CPDA, 50% corn syrup, 24 hrs, 24 hrs fasting, sugar feeder provided for free choice) was 22-30%. The “death after 24 hours of feeding” value (female mosquitoes; 0.1% rFOH, 10% sucrose in CPDA, free choice with 10% sucrose feeder) was 43%, the “death after 24 hours of feeding” value (female mosquitoes; 0.1% rFOH, 10% sucrose in CPDA, single feeder) was 44% and the “Death Rate” value (female mosquitoes; 0.1% rFOH, 10% sugar in CPDA, 24 hrs, 24 hrs fasting, sugar feeder not provided) was 65%. The “Death Rate” value (female mosquitoes; 0.1% rFOH, 10% sugar in CPDA, 24 hrs, 24 hrs fasting, sugar plus CPDA feeder provided for free choice) was 59-80%, the “Death Rate” value (female mosquitoes; 0.1% rFOH, 10% sugar in CPDA, 24 hrs, not fasted, sugar feeder provided for free choice) was 64% and the “Death Rate” value (female mosquitoes; 0.1% rFOH, 10% sugar, no CPDA, 24 hrs, 24 hrs fasting, sugar feeder provided for free choice) was 44-50%. For the same compound, the “total death rate incl. residual death” value (female mosquitoes; 0.1% rFOH, rFOH feeder replaced by sugar feeder, residual death within next 24 hours included) was 46-64%, the “death of female mosquitoes after 24 hours of feeding” value (female mosquitoes; 0.15% rFOH) was “more than 90%” and the Death Rate (female mosquitoes; 0.15% rFOH, 10% sucrose in CPDA, 24 hours feeding, two-choice with 10% sucrose feeder) was “over 80%”. The “Death Rate” value (female mosquitoes; 0.15% rFOH, 10% sugar in CPDA, 24 hrs, 24 hrs fasting, sugar feeder not provided) was 95-98%, the “Death Rate” value (female mosquitoes; 0.15% rFOH, 10% sugar in CPDA, 24 hrs, 24 hrs fasting, sugar feeder provided for free choice) was 55-80% and the “time to death after ingestion” value (female mosquitoes; 0.15% rFOH, female mosquitoes) was 2 to 5 h. For the same compound, the Death Rate (female mosquitoes; 1% rFOH, 10% sucrose in CPDA, 24 hours feeding, two-choice with 10% sucrose feeder) was “over 80%”, the “Death Rate” value (female mosquitoes; 5% rFOH, 10% sugar in CPDA, 24 hrs, not fasted, sugar feeder not provided) was 94% and the “residual death in the next day” value (female mosquitoes; after 24 hours feeding rFOH feeder removed, regular sugar feeder (10% sucrose) provided) was 5-20%. For the same compound, the “rFOH per mosquito corresponding to 0.15% rFOH” value (female mosquitoes; assuming a female mosquito ingests as much as 0.6 μl of the composition, >90% death) was 0.001 mg.
